# Measured values reported in patent US10292997B2, “Compositions and methods for stimulating wound healing” (priority 2011, dated 2019).
# Test system: full thickness skin wounds
# Assay: Wound closure rate of excised full thickness skin wounds treated with gel formulations
# Type: in vivo, Hartley-derived albino guinea pigs
substance,measurement,setting,value
"Insulin: Insulin alone as control; non-steroidal anabolic hormone, vehicle not stated in the table",Peak Closure Day,day of maximum closure rate,3.0 days
same,Closure % (day) 50%,"day on which 50% wound closure is reached, gel about 1 cc/cm^2, dressing changed every 48 hours",5.0 days
same,% Closure at Peak Closure Day,wound closure reached on the peak closure day,30%
